In US20070248599A1 (priority 2006, published 2007):

T1: ApoER2 (Mus musculus, UniProt Q924X6)
T1 construct: expressed in transfected cells; host or cells: HEK293 (inferred; the pull-down text names HEK293 lysates only for X11-transfected cells)
T1 sequence (Q924X6 29-996): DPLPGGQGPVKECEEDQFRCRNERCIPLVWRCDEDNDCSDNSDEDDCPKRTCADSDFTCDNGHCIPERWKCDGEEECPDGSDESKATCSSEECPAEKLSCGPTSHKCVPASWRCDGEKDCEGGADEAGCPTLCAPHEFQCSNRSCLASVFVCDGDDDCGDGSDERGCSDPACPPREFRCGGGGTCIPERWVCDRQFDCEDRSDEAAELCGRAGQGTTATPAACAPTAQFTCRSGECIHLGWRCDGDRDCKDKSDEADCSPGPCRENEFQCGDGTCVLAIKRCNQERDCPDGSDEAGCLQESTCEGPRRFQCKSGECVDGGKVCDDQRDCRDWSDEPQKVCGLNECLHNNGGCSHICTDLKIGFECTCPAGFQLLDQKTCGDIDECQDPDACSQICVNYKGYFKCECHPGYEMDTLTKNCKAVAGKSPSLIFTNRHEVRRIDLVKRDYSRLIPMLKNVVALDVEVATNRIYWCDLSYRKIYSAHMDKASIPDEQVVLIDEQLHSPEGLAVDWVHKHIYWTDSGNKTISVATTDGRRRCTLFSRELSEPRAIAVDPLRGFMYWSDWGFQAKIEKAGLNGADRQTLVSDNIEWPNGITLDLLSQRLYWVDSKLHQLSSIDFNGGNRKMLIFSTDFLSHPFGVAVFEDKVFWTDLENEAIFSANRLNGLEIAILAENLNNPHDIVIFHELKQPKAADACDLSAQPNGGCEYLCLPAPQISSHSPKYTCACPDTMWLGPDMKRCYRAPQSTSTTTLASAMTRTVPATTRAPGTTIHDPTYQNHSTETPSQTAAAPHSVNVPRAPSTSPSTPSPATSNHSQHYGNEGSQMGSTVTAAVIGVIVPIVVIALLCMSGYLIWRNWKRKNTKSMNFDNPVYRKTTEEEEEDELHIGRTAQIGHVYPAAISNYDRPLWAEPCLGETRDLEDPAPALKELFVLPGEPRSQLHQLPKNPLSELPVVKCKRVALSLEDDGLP

B1: PTB domain: PTB domain of X11α (residue 457-751), expressed from pcDNA6 as dominant-negative inhibitor or as GST fusion (protein)
chain: DGIIFAANYLGSTQLLSDKTPSKNVRMMQAQEAVSRIKMAQKLAKSRKKAPEGESQPMTEVDLFISTQRIKVLNADTQETMMDHPLRTISYIADIGNIVVLMARRRMPRSNSQENVEASHPSQDGKRQYKMICHVFESEDAQLIAQSIGQAFSVAYQEFLRANGINPEDLSQKEYSDLLNTQDMYNDDLIHFSKSENCKDVFIEKQKGEILGVVIVESGWGSILPTVIIANMMHGGPAEKSGKLNIGDQIMSINGTSLVGLPLSTCQSIIKGLKNQSRVKLNIVRCPPVTTVLIR
modifications: left off: a dimerising Fc or GST

Columns and labels:
[1] = tested on: N2a-APPsw cells; assay: Cellular Aβ production in N2a-APPsw cells (Aβ40 ELISA of conditioned medium); type: cell-based, mouse
Method: Quantification of β-Amyloid40, Neuro-2a cell stably overexpressing APPsw695 was used for detecting of β-Amyloid40. N2a-APPsw cells were grown in Dulbecco's Modified Eagle's medium (DMED) containing 10% fetal bovine serum, 100 U/mL penicillin, and 100 μg/mL streptomycin (GibcoBUR) with 80 μg/mL G418. Cells were cultured in 24-well plates one day before treatment. Transient transfections were done using FeGENE6 (Roche), fresh Optimum medium (Invitrogen) were supplied 5 h after transfection. Same concentration purified Apolipoprotein was added into the fresh medium. Conditioned medium was collected 24 h later. Aβ40 was quantified with sandwich ELISA by using Aβ40 ELISA Kit (Biosource). At least three times assays were done for each condition.
(§1) Cellular Aβ40 production. Neuroblastoma N2a-APPsw cells (from Dr. Riqiang Yan, Lerner Research Institute, Cleveland, Ohio) were cultured in 24-well plates in Dulbecco's Modified Eagle's medium (DMED) containing 10% fetal bovine serum, 100 U/mL penicillin, and 100 μg/mL streptomycin (GibcoBUR) with 80 μg/mL G418 one day before use. Transient transfections were done using FeGENE6 (Roche), fresh Optimum medium (Invitrogen) were supplied 5 h after transfection. Apolipoproteins were added in the fresh medium at 10 μg/mL. Conditioned medium was collected 24 h later. Aβ40 was determined in tripcates using Aβ40 ELISA Kit (Biosource). For studying the effect of PTB domain on Aβ production, N2a-APPsw cells were transfected with (0.4 μg/per well for 24 well plate) of PTB-containing vector before subjected to the above procedure.

[2] = tested on: N2a-APPsw cells transfected with ApoER2 and β-secretase; assay: Internalization of cell surface proteins (biotinylation, Western blot); type: cell-based, mouse
Method: Internalization of cell surface proteins. N2a-APPsw cells were transiently tranfected with ApoER2 and β-secretase with Lipfectamine 2000. […] Cells were then placed on ice, rinsed in cold PBS and incubated in PBS containing 1.5 mg/mL sulfo-NHS-LC-biotin (Pierce) for 20 min at 4° C. Cells were rinsed twice in PBS and lysed in 800 μl PBS containing 0.1% SDS, 1% NP40 and a complete protease inhibitor cocktail. Total protein concentration was determined by immunoblotting from an aliquot of 50 μl cell lysate. Biotinylated proteins were recovered with NeutrAvidin agarose (50 μl; Pierce), rinsed three times, eluted in 20 μl SDS-sample buffer at boiling temperature and used for Western-blot. Quantity of bands was determined by optical scanning instruments specified above. For the determination of internalized proteins, cells were prepared as above, rinsed in PBS and then incubated with cold 1.5 mg/mL cleavable biotin reagent in PBS (EZ-Link Sulfo-NHS-SS biotin, Pierce) for 20 min at 4° C. […] Cells were then lysed in 800 μl PBS containing 0.1% SDS, 1% NP40 and a complete protease inhibitor cocktail. After centrifugation, biotinylated proteins were retrieved by incubation with NeutrAvidin agarose (50 μl; Pierce). Isolated proteins were rinsed in buffer three times and boiled in 20 μl sample buffer for Western blots.

[3] = tested on: N2a-APPsw cells; assay: Cellular Aβ production in N2a-APPsw cells (Aβ40 ELISA of conditioned medium); type: cell-based, mouse; remark: listed apart in the source
[4] = tested on: N2a-APPsw cells transfected with ApoER2 and β-secretase; assay: Internalization of cell surface proteins (biotinylation, Western blot); type: cell-based, mouse; settings: Western blot of conditioned medium (FIG. 6D)
[5] = target: LDL (low-density lipoprotein) lipid receptor (Homo sapiens, UniProt P01130); settings: cited from earlier work
Sequence of LDL (low-density lipoprotein) lipid receptor (P01130 22-860): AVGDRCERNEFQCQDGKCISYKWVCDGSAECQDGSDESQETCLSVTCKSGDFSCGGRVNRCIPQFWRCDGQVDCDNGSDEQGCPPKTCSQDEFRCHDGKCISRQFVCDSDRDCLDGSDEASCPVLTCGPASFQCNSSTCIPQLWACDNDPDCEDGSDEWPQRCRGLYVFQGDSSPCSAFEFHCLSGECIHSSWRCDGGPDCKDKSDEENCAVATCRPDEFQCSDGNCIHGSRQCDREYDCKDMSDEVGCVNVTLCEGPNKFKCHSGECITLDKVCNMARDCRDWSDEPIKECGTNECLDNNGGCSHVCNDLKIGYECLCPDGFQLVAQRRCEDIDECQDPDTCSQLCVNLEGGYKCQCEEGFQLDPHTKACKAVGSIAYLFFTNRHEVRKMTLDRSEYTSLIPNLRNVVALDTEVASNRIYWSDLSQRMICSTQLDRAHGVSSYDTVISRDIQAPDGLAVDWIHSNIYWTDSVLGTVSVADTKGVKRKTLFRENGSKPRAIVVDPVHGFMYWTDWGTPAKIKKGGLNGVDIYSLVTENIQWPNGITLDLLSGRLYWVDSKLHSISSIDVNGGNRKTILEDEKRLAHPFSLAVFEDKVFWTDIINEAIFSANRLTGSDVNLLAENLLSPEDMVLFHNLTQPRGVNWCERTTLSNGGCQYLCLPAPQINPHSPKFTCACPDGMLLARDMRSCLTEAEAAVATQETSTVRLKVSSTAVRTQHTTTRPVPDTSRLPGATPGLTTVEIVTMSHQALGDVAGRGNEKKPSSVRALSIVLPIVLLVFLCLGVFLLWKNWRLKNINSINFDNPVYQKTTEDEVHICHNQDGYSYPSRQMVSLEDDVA

[6] = tested on: endogenous X11α/β; assay: Effect of transfected PTB domain of X11α on ApoE-induced Aβ production; type: cell-based, mouse; settings: PTB expression in N2a-APPsw cells, 0.4 μg vector per well (FIG. 9B)
Method: as §1

[7] = target: T1, ApoER2; assay: GST pull-down of ApoER2 by X11α domains; type: binding, murine; settings: GST fusions of X11α domains, Western blot (FIG. 8A)
Source text: cDNA vectors. Vectors for human β-secretase and Swedish mutant of APP were previously described (Lin et al., 2000). Vectors for human X11α, X11β, human LRP, and murine ApoER2 were kindly provided by Dr. Chistopher C J Miller (Kings College London, UK), Dr. Ben Margolis (University of Michigan), Dr. Guojun Bu (Washington University), and Dr. Johannes Nimpf (University of Vienna, Austria) respectively. PCR was used for transferring murine ApoER2 gene into pcDNA6 with V5-His-Tag at the C-terminus and for creating mutants of murine ApoER2 in pcDNA6. PTB domain of X11α (residue 457-751) were amplified by PCR and inserted into pcDNA6. GST constructs of GST-PTB (457-751), GST-PDZ (650-837) of X11α and GST constructs of ApoER2 cytosolic domain GST-ApoC1 (881-996), GST-ApoC2 (881-925), GST-ApoC3 (926-996) and GST-APPc (650-695) were amplified by PCR and inserted into plasmid pGEX6.1 (Pharmacia). All constructs were verified by sequencing. GST fusion proteins were produced in Escherichia coli BL21 strain and purified as described previously (He et al., 2003).
Pull-down assays. For GST pull down, GST fusion proteins were retrieved as previously described (He et al., 2003). The amount of protein recovered with glutathione beads was determined using Bio-Rad Protein Assay and diluted to yield a concentration of 1 mg protein/mL of beads. […]

[8] = 10 μg/mL, internalization 15 min at 37° C. (FIG. 6B)

pull down of ApoER2 from the cell lysate [7]	Molecule	Aβ production in cells transfected with ApoER2 versus without ([1]; N2a-APPsw cells (FIG. 5D))	Aβ40 and Aβ42 production, ApoE4 in native human VLDL versus ApoE2 and ApoE3 ([1]; VLDL from individual human plasma, N2a-APPsw cells (FIG. 5C))	Aβ production ([1]; recombinant ApoE forms at 10 μg/ml, N2a-APPsw cells (FIG. 5B))	total amounts of ApoER2, APP and β-secretase in the cell lysates ([2]; 10 μg/mL, 2 h)	decrease of remaining cell-surface β-secretase ([2]; 10 μg/mL, 2 h, compared to controls (FIG. 6A))	increase of intracellular APP [2, 8]	increase of intracellular ApoER2 [2, 8]	increase of intracellular β-secretase [2, 8]	intracellular APP C-terminal fragment C99 ([2]; Western blot, over the control (FIG. 6C))	Aβ40 increase in cells transfected with ApoER2 versus blank vectors ([3]; 5 μg/mL, N2a APPsw cells, p<0.05 (FIG. 4))	Aβ40 levels in medium ([3]; 5 μg/mL, blank vector transfected N2a APPsw cells vs control (FIG. 4))	Aβ production ([3]; each at 5 μg/mL, 24 h, N2a-APPsw cells (FIG. 5B legend))	APP ectodomain generated by ∝-secretase, s∝-APP [4]	normal receptor binding activity [5]	ApoE4-induced Aβ increase [6]
	ApoE4: ApoE isoform with arginine substituted for cysteine at residue 112; from Biodesign / Alpha Diagnostic	produced more Aβ	stimulates higher Aβ production	increased Aβ production (FIG. 5B) with the highest response	remained about the same	~35%	~4 fold	small increases	small increases	significantly increased	increase of Aβ40 at a greater extent	increased over that in the control cells	increased Aβ production	reduction	100%	
pull down ApoER2	B1															largely abolished
